Reference: US20260365692A1, “COMPOSITIONS COMPRISING PROTEINS DISSOLVED IN FLUORINATED SOLVENTS, AND METHODS OF MAKING AND USING THE SAME” (priority 2022, published 2026)

Tests used:
E. coli = assay: Bacterial contamination of BSA samples with E. coli; details: 37 °C overnight
Protocol: FIG. 24A: Diagram of contamination experiment. FIG. 24B: Samples in PBS (top) and PFOc (bottom) after contamination with E. coli.
To model bacterial contamination of samples a hypodermic needle was streaked across a lawn of plated E. coli (FIG. 24A). The contaminated needle was then dipped into PBS or PFOc (containing PFNA) samples with dispersed BSA protein to contaminate, and samples incubated at 37 °C overnight to allow for bacterial growth. An aliquot of the solution was then streaked onto LB-agar plates and incubated at 37 C overnight to allow for bacterial colony formation.

[1] = Temperature-dependent circular dichroism of proteins in PFOc or PBS (Example 4); type: physicochemical
Protocol: FIGS. 39A-39B depict temperature-dependent CD spectra of the indicated test protein solubilized in PFOc using the PD-7 dispersant, or PBS as a control.
FIG. 40 depicts the change in minimum CD ellipticity over the 40 °C-85 °C temperature interval for the indicated protein dissolved in either PBS or PFOc.
To determine structural integrity of proteins in aqueous and fluorinated environments at elevated temperatures, circular dichroism (CD) was used to probe secondary structure. Proteins were either diluted in PBS (aqueous) or dispersed in PFOc at the same designated concentrations according to protocol described above. For aqueous samples, dissolved proteins were heated between 40 °C to 90 °C, and their corresponding CD spectra at each temperature was measured. For PFOc samples, each of the PFOc dispersed proteins were subjected to heat treatment at 40, 55, 70, and 85 °C for 15 minutes. After that, dispersed proteins were eluted into PBS before having their CD spectra taken. Data is shown by representative ellipticity at each temperature depicted by distinct colors.

[2] = tested on: E. coli, P. aeruginosa, K. pneumoniae, Methicillin-resistant S. aureus (MRSA), C. albicans; assay: Contamination of BSA formulations by bacterial and fungal pathogens
Excerpt: FIG. 53 depicts representative photographs of agar plates streaked with BSA formulations in PBS (top panel) or PFOc (lower panel) contaminated with the indicated pathogen. MRSA=methicillin resistant Staphylococcus aureus.
Evaluating PFOc Protein Formulation Resilience Against Contaminants Aqueous protein formulations can be compromised by contaminating pathogens, or the biologic inactivated by exposure to environmental disinfectants and acids. In the context of bacterial and fungal contamination, it was hypothesized that removal of the water solvent required for microorganismal survival should make the PFOc protein formulations intrinsically sterile. A hypodermic needle was streaked across a lawn of the human bacterial pathogens E. coli, P. aeruginosa, K. pneumoniae or Methicillin-resistant S. aureus (MRSA), as well as the human fungal pathogen C. albicans prepared on agar. The contaminated needle was then submerged into BSA protein formulations prepared in either PBS or PFOc solvents. Contaminated liquid formulations were incubated at 37 °C overnight and replated onto agar plates to assess growth.

HepG2 cells = assay: HepG2 MTT viability assay (Example 2); type: cell-based, human; details: HepG2, 37 °C overnight
Protocol: FIG. 28 depicts a viability assay for HepG2 cells treated with two first generation compounds and two second generation compounds.
Next, viability assays were performed by seeding HepG2 (liver cancer cell line) onto 96 well plates and allowing the cells to adhere overnight. DMEM cell culture media containing various concentrations of each FTag compound were then added, and the plates were incubated at 37 °C overnight. The supernatant was then removed and MTT viability dyes were added to each well and allowed to convert for 2 hours. Dye absorbance for each condition was then compared to positive (20% DMSO) and negative (blank media) controls to calculate % viability (FIG. 28).

[3] = tested on: seven model proteins (Hb, GFP, BSA, β-Gal, IgG, TFN, URE); assay: Fluorochemical-mediated dispersion of test proteins into perfluorohexane; type: physicochemical; details: into PFH, 1000:1 molar ratio with protein
Excerpt: Only the rabbit IgG Fc fragment is shown.
For PFAS amphiphiles, the combination of polar head group and fluorophilic tail additionally leads to their preferential assembly at water-fluorous interfaces. Based on these unique properties, it was speculated that PFAS compounds may noncovalently associate with proteins to mediate their phase separation into fluorous media. To test this, a screening assay was developed to qualitatively investigate the binding affinity of a library of perfluorinated chemicals with seven model proteins, which include human hemoglobin (Hb), green fluorescent protein (GFP), bovine serum albumin (BSA), (β-Galactosidase (β-Gal), rabbit serum immunoglobulin (IgG), bovine apo-transferrin (TFN), and urease (URE). This group of model proteins captures an array of physicochemical properties ranging in molecular weight, solvent accessible surface area (SASA), isoelectric point (pI), and hydrodynamic radii. A corresponding perfluorinated small molecule test set was selected to contain a plurality of functional groups, linear perfluorocarbon chain lengths, and cyclic or aromatic geometries (FIGS. 1-7). Selection of these compounds was based on their potential to form noncovalent bonds (i.e., hydrogen or ionic) with the solvent exposed protein surfaces. […] These three linear PFAS chemicals are currently regulated by the US Environmental Protection Agency based on their reproductive, immune, and hepatic toxicity (References: 44-46). In sum, the structural and biochemical diversity represented in the protein and fluorochemical libraries was rationally selected to allow structure-function-performance relationships to be ascertained from binding studies.

β-Galactosidase (β-Gal) = details: into PFH, 1000:1 molar ratio with protein
Excerpt: FIGS. 8A-8G depict fluorochemical-mediated dispersion of test proteins hemoglobin (Hb, FIG. 8A), green fluorescent protein (GFP, FIG. 8B), bovine serum albumin (BSA, FIG. 8C), β-Galactosidase (β-Gal, FIG. 8D), rabbit serum immunoglobulin G (IgG, FIG. 8E), bovine apo-transferrin (TFN, FIG. 8F), and urease (URE, FIG. 8G) into perfluorohexane. […] The compound ‘0’ indicates a control sample absent of an additive. The crystal structure of each protein candidate tested is shown in the inset of each of FIGS. 8A-8G. Only the rabbit IgG Fc fragment is shown.
To investigate PFAS-protein binding avidity, an assay was developed to measure the concentration of protein dispersed into perfluorohexane (PFH) in the presence of each fluorochemical compound (1000:1 molar ratio with protein). Protein dispersion into PFH served as a quantitative measure of PFAS-protein avidity, where the amount of dispersed protein was normalized to its initial concentration to evaluate binding interactions.

[4] = Thermal stability of proteins in PFNA/PFOc (bioactivity after heating); type: physicochemical; details: PFNA/PFOc mixture compared to aqueous solution, 30 min heating
Protocol: FIGS. 16A-16C depict that the thermal stability of β-gal, GFP, and Trypsin is enhanced when the proteins are dissolved in a PFNA/PFOc mixture, compared to aqueous solutions of the proteins.
PFNA enhanced thermal stability in PFOc Differential scanning calorimetry (DSC) measurements were performed on 5 test proteins dissolved in either PBS (Aq.) or Perfluorooctane (PFOc). PFNA dispersant was added only for the PFOc conditions. DSC was performed at 2 °C/min ramp from 40 °C-100 °C. Melting temperature (Tm) was determined based on positive inflection of heat capacity curve, indicating protein unfolding (FIG. 15). Change in melting temperature (ATm (°C)) represented the difference in Tm between aqueous (Aq.) and PFOc data. Tm for GFP in PFOc could not be achieved at the maximum temperature of 100 °C for the DSC experiments. Each protein was dissolved in PBS (Aq.) or PFNA/PFOc mixture. Dissolved proteins were heated to 75 °C (β-gal), 90 °C (GFP) or 80 °C (Trypsin); treatment temperatures were determined based on aqueous melting temperatures for each protein. Positive controls were maintained at room temperature (25 °C). […] Bioactivity was evaluated then via fluorescence measurements for GFP, or using colorimetric substrate conversion assays (ONPG for β-gal, BAEE for Trypsin). […]

[5] = Protein activity after elevated temperature exposure (Example 4); type: physicochemical; details: 90 °C for 30 minutes
Protocol: A group of enzyme proteins, β-Gal and Trypsin was chosen for this study. β-Gal and Trypsin were diluted in PBS or dispersed in PFOc at 1 μM and 10 μM, respectively. Next, a subset of samples was subjected to elevated temperature condition (90 °C) well beyond their native denaturation temperature for 30 minutes. After that, samples were allowed to cool down to room temperature before retrieval. For PFOc samples, proteins were extracted into PBS before performing the ensuing assays. To determine the enzymatic activity, an equal volume of protein samples was added to their substrates dissolved in PBS (4 mg/mL ONPG for β-Gal or 1 mg/mL BAEE for Trypsin). After incubation, ONPG and BAEE substrate conversions were measured by taking absorbance using a microplate reader at 420 nm or 400 nm, respectively. In case of intrinsic fluorescence, GFP was similarly prepared, and heat treated. After GFP samples were retrieved, fluorescent intensity was taken at λex=490 nm, λem=520 nm. The change in protein activity was presented by normalizing to spectrometric readings of each protein dissolved in PBS without being subjected to heat (room temperature). […] This supports the assertion that the fluorous coating and solvent environments, together, serve to constrain the conformational flexibility of the dispersed protein and, as a result, increase its melting temperature.

[6] = dispersed in PFOc using PD-7, heated up to 85 °C

For BSA: bovine serum albumin (BSA), the “E. coli colony growth after contamination” value (E. coli; BSA in PBS) was “Visible E. coli colony growth”, the sterility after contamination (E. coli; BSA in PFOc (containing PFNA)) was “remained sterile” and the “change in secondary structure” value [1, 6] was “minimal changes in secondary structure”. For the same molecule, the contamination ([2]; BSA in PBS) was “readily contaminated by all five pathogens” and the sterility after contamination ([2]; BSA in PFOc) was “remained sterile”.

“2,2-(1,1,1,2,2,3,3,4,4,5,5,6,6-tridecafluorooctane)-2-cyanoacetic acid [Compound 21]” showed an IC50 (HepG2 cells) of 610 µM.

With O=C(O)C1(F)C(F)(F)C(F)(F)C(F)(F)C(F)(F)C1(F)F [Compound 13, perfluorocyclohexanecarboxylic acid] the “capacity to disperse proteins into PFH / association with proteins (in words)” value [3] was “capacity to disperse many of the protein candidates into PFH”.

For O=C(O)C(F)(F)C(F)(F)C(F)(F)C(F)(F)C(F)(F)C(F)(F)C(F)(F)C(F)(F)C(F)(F)C(F)(F)C(F)(F)F [Compound 10, perfluorododecanoic acid], the “dispersion efficiency of β-Gal (in words)” value (β-Galactosidase (β-Gal)) was “stepwise increase in dispersion efficiency”.

For O=C(O)C(F)(F)C(F)(F)C(F)(F)C(F)(F)C(F)(F)C(F)(F)C(F)(F)F [Compound 6, perfluorooctanoic acid], the “capacity to disperse proteins into PFH / association with proteins (in words)” value [3] was “significantly compromised its association with most proteins”.

In the case of NCC(F)(F)C(F)(F)C(F)(F)C(F)(F)C(F)(F)C(F)(F)C(F)(F)C(F)(F)F [Compound 20, 1H,1H-perfluorononylamine], the “capacity to disperse proteins into PFH / association with proteins (in words)” value [3] is reported as “capacity to disperse many of the protein candidates into PFH”.

With O=C(O)C(F)(F)C(F)(F)C(F)(F)C(F)(F)C(F)(F)C(F)(F)C(F)(F)C(F)(F)C(F)(F)F [Compound 8, perfluorodecanoic acid] the “capacity to disperse proteins into PFH / association with proteins (in words)” value [3] was “significantly compromised its association with most proteins”.

With O=C(O)C(F)(F)C(F)(F)C(F)(F)C(F)(F)C(F)(F)C(F)(F)C(F)(F)C(F)(F)C(F)(F)C(F)(F)C(F)(F)C(F)(F)C(F)(F)F [Compound 11, perfluorotetradecanoic acid] the “dispersion efficiency of β-Gal (in words)” value (β-Galactosidase (β-Gal)) was “sharp drop off in dispersion efficiency”.

For O=S(=O)(O)C(F)(F)C(F)(F)C(F)(F)C(F)(F)C(F)(F)C(F)(F)C(F)(F)C(F)(F)F [Compound 17, perfluorooctanesulfonic acid], the “capacity to disperse proteins into PFH / association with proteins (in words)” value [3] was “capacity to disperse many of the protein candidates into PFH”.

B1: Trypsin: bovine trypsin (protein, UniProt P00760 24-246, looked up)
Serine protease 1: IVGGYTCGANTVPYQVSLNSGYHFCGGSLINSQWVVSAAHCYKSGIQVRLGEDNINVVEGNEQFISASKSIVHPSYNSNTLNNDIMLIKLKSAASLNSRVASISLPTSCASAGTQCLISGWGNTKSSGTSYPDVLKCLKAPILSDSSCKSAYPGQITSNMFCAGYLEGGKDSCQGDSGGPVVCSGKLQGIVSWGSGCAQKNKPGVYTKVCNYVSWIKQTIASN
For B1, the thermal stability [4] was “enhanced”, the “change in secondary structure” value [1, 6] was “minimal changes in secondary structure” and the “change in secondary structure” value ([1]; saline (PBS) control, 40-85 °C) was “minimal change in structure”. For the same molecule, the “change in activity after heating” value ([5]; PFOc dispersed) was “no statistically significant change in activity” and the “loss of bioactivity after heating” value ([5]; saline) was > 90%.
